Results from patent US9133237B2, “Cyclic peptides with an anti-parasitic activity” (priority 2009, dated 2015).

Columns and labels:
[1] = test system: HeLa cancer cells (cervical cancer); assay type: cell-based
Method: (§1) The synthesized cyclic peptides were subject to tests in vitro on human fibroblasts infected by Toxoplasma gondii (Toxo), on non-infected human fibroblasts (HFF) and on HeLa cancer cells (cervical cancer) and MCF-7 cancer cells (breast cancer). Their respective efficiencies were tested at 90 nM as a preliminary test. The results are illustrated in Figure 1.

[2] = test system: MCF-7 cancer cells (breast cancer); assay type: cell-based
Method: as §1

Toxoplasma gondii = assay type: cell-based
Method: as §1

[3] = test system: non-infected human fibroblasts (HFF); assay type: cell-based
Method: as §1

[4] = test system: cysts (bradyzoite form) of murine brains; assay: ex vivo treatment of cysts of murine brains, re-inoculated intraperitoneally to mice; assay type: in vivo, Toxoplasma gondii; details: cysts treated ex vivo at 200 nM for 7 days, Figure 3
Method: The cyclic peptide (IV′f) was then tested on cysts (bradyzoite form) of murine brains ex vivo at 200 nM (Figure 3). The cysts after treatment for 7 days with the cyclic peptide (IV′f) were re-inoculated intraperitonally to the mice.

EC50 [1]: 0.474 µM
EC90 [1]: 1.01 µM
EC50 [2]: 0.533 µM
SMILES: C[C@@H](O)C(=O)CCCCC[C@@H]1NC(=O)[C@H]2CCCN2C(=O)[C@H](Cc2ccccc2)NC(=O)C(C)(C)NC1=O [(IV′f), (3S,9S,14aR)-9-benzyl-3-((R)-7-hydroxy-6-oxooctyl)-6,6-dimethyldecahydropyrrolo[1,2-a][1,4,7,10]tetraazacyclododecine-1,4,7,10-tetraone]
EC50 (Toxoplasma gondii): 0.0286 µM
EC90 (Toxoplasma gondii): 0.0797 µM
efficiency in preliminary test (Toxoplasma gondii; 90 nM, Figure 1): interesting preliminary results
activity compared with apicidin (Toxoplasma gondii; Figure 2): activity close to that of apicidin
effectiveness (Toxoplasma gondii; Figure 2): very good effectiveness, of the order of the nanomolar
efficiency compared with pyrimethamine (Toxoplasma gondii; Figure 2): much greater efficiency relatively to pyrimethamine
EC50 [3]: 0.647 µM
EC90 [3]: 4.11 µM
cysts in mice after injection of treated cysts [4]: do not exhibit any cyst
